Target: Acetylcholinesterase (Electrophorus electricus, UniProt O42275)
Assay: Inhibition of electric eel AChE by Ellman's method

Chain of Acetylcholinesterase (O42275 whole entry): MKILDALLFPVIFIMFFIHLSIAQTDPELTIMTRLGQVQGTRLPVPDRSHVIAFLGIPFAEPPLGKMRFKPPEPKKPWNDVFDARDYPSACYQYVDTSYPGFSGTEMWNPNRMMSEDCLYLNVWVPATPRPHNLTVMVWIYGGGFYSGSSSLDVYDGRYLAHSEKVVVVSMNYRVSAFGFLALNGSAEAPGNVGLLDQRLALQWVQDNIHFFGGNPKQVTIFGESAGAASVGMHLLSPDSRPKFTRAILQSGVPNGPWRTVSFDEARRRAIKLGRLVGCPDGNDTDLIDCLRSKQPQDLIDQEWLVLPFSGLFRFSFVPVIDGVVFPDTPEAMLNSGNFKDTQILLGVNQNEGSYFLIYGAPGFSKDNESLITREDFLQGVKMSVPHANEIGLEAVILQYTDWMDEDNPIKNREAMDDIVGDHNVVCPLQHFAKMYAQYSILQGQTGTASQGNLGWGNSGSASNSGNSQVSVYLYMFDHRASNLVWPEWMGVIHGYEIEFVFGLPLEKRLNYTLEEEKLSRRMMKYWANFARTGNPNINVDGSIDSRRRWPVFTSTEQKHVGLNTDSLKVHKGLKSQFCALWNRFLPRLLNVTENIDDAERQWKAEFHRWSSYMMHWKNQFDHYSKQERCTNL

O=CN1CC[C@]23CC(=O)CC[C@H]2[C@H]1Cc1c(O)ccc(O)c13
IC50: 12.7 µM
